Data on three compounds can be found in patent US20120258938A1, “Enzymatic Production or Chemical Synthesis and Uses for 5,7-Dienes and UVB Conversion Products Thereof” (priority 2008, published 2012).

Data set [1] concerns the target T1, CYP27A1 (Homo sapiens, UniProt Q02318).
T1 sequence (Q02318 34-531): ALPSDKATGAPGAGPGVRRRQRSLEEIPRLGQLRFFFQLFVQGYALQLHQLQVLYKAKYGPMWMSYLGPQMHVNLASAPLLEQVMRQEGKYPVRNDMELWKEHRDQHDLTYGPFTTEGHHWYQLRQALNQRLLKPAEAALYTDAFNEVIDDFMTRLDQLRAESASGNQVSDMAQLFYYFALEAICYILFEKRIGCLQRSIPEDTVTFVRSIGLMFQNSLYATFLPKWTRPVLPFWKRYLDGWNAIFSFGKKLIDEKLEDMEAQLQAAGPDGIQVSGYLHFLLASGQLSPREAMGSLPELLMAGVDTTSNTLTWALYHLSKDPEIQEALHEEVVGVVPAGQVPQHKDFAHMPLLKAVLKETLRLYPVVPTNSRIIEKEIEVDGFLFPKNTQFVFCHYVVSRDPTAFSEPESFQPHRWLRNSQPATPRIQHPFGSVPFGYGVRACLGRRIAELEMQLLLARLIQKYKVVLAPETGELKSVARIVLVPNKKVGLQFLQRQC
As to the kind of experiment: Metabolism by CYP27A1 (cyclodextrin or phospholipid vesicles). Conditions: cyclodextrin. The procedure: (§1) To test enzymatic metabolism of 20S(OH)D3 and 20R(OH)D3, the substrates were incorporated into phospholipid vesicles with the ratio of substrate to phospholipid being 0.025 mol/mol phospholipid. Vesicles were incubated with 2 μM bovine CYP11A1 or 0.06 μM human CYP27B1 for up to 10 min. To test enzymatic metabolism of 20(OH)D3 in CYP24, the substrate was incorporated into phospholipids vesicles with 0.15-0.5 μM CYP24. To test enzymatic metabolism of 20(OH)D3 in CYP27A1, purified CYP27A1 was preincubated with the vesicles for 6 min at 37° C. Adrenodoxin was added last to initiate the reaction. For kinetic experiments, the incubations were typically 0.5 mL and were carried out over the initial linear period of the reaction (10 min for vitamin D3 and cholesterol and 30 min for 20(OH)D3).
Kinetic characterization of the metabolism of 20(OH)D3 by CYP27A1 was carried out with substrate dissolved in either cyclodextrin or phospholipid vesicle. Vitamin D3 and 20(OH)D3 were incubated with 0.4 μM CYP27A1 and 1 μM CYP27A1, respectively, for 10 and 30 min. The products were analyzed by reverse phase HPLC. The hyperbolic curves were fitted using the equation v/[E]=(kcat—[S])/(Km+[S]) where v is reaction velocity, [E] is the CYP27A1 concentration, and [S] the substrate concentration.

In a further data set the target is T2, cytochrome P450scc (Bos taurus, UniProt P00189).
T2 sequence (P00189 40-520): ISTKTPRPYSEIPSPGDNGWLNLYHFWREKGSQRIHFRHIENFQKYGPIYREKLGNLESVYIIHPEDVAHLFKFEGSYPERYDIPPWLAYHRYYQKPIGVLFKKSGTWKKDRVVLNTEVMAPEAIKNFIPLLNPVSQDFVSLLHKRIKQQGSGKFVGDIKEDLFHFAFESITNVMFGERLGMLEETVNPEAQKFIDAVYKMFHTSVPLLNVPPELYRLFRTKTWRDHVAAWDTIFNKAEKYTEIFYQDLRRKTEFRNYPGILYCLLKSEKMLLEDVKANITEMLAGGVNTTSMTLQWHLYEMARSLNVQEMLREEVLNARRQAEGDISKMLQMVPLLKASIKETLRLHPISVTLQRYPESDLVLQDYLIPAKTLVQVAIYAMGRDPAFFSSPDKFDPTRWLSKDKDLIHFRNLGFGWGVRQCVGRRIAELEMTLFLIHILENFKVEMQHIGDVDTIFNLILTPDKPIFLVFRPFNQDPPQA
As to the kind of experiment: Metabolism by cytochrome P450scc in cyclodextrin. Conditions: substrate in 0.45% cyclodextrin. The procedure:
Adrenodoxin was expressed in Escherichia coli and purified as described before (41). […] Metabolites were analysed using a Perkin Elmer HPLC equipped with a C18 column (Brownlee Aquapore, 22 cm×4.6 mm, particle size 7 μm).

In another data set the test system is Col1A1 mRNA. As to the kind of experiment: Real time RT PCR Col1A1 mRNA, TGF-b1 stimulated skin fibroblasts. Type of data set: cell-based. Conditions: human skin fibroblasts. The procedure:
Additional studies using human skin fibroblasts were performed employing a type I collagen specific ELISA Chondrex, and real time RT PCR to quantitate type I collagen protein and Col1A1 mRNA expression in culture of human fibroblast stimulated by TGF-b1 in the presence and absence of 17,20S(OH)2pD3 and/or 20(OH)D3. These studies confirmed that Type I collagen protein production that was induced by TGF-b1 and that Col1A1 mRNA that was induced by TGF-b1 were suppressed by these analogues (FIGS. 44A-44B).

Data set [2] relates to HaCaT keratinocytes. As to the kind of experiment: Colony forming (clonogenicity) assay in HaCaT keratinocytes. Type of data set: cell-based, human. Conditions: 10^−8 M, 10 days. The procedure:
HaCaT and human adult epidermal keratinocytes were cultured and DNA synthesis experiments were performed as described previously (26). Cells were plated in 6-well plates at a density of 20 cells/cm^2 in DMEM (Cellgro, Herndon Va.) containing 5% charcoal-treated fetal bovine serum (Hyclone, Logan, Utah), 1% antibiotic solution (PSA, Sigma, St. Louis, […].) and vehicle or secosteroids. Cells were incubated in 37° C. for 10 days with media being changed every 72 hr. Cells were fixed with 4% paraformaldehyde in PBS overnight, stained with 0.5% crystal violet in PBS for 15 min, rinsed and air-dried. The number and size of the colonies were measured using an ARTEK counter 880 (Dynex Technologies Inc., Chantilly, Va.). Colony forming units were calculated as follows: number of colonies (size>0.5 mm) was divided by the number of cells plated and multiplied by 100.

The test system of another data set is CYP24 promoter. As to the kind of experiment: CYP24-Luc reporter in normal epidermal keratinocytes. Conditions: 24 h. Type of data set: cell-based, human. From the text:
The CYP24-Luc construct was a generous gift from Dr Tai Cheng (Boston University Medical Campus, Core Lab Director). It was originally developed by Vaisanen et al. (27). The details of the pLuc construct have been described previously (28-29). Normal epidermal keratinocytes were transfected using Lipofectamine Plus (Invitrogen, Carlsbad, Calif.) in Epilife medium with firefly luciferase reporter gene plasmid and with phRL-TK (expresses Renilla luciferase and serves as normalization control; Promega, Madison, Wis.). After transfection, cells were incubated for 24 hours in EpiLife medium with HKGS. Cells were then transferred to fresh media containing the compounds to be tested or vehicle (ethanol) and incubated for 24 hours. The firefly luciferase and Renilla luciferase signals were recorded with a TD-20/20 luminometer (Turner Designs, Sunnyvale, Calif.); background luminescence was subtracted and the resulting promoter-specific firefly signal was divided by the Renilla signal (proportional to the number of transfected cells). The values obtained were divided by the mean of control (untreated) cells.

The subject of the next data set is CYP27B1. As to the kind of experiment: Real-time RT PCR CYP27B1 mRNA, normal epidermal keratinocytes. Type of data set: cell-based, human. As to conditions: 10^−8 M, 1 h. The protocol: (§2) RNA was extracted using an Absolutely RNA RT-PCR Miniprep Kit (Stratagene, La Jolla, Calif.). Real time PCR and reverse transcription products were purchased from Applied Biosystems, Foster City, Calif. Reverse transcription was performed using Taqman® Reverse Transcription Reagents. The following PCR products were used: cytokeratin 14: Hs00265033_m1, involucrin: Hs00846307_s1, CYP27A1: Hs00168003_ml, CYP27B1: Hs00168017_ml, 18SrRNA: Hs99999901_s1. The reaction was performed with Taqman® Universal PCR Master Mix; data were collected on an ABI Prism 7700 and analyzed on Sequence Detector 1.9.1. Specific gene amounts were related to 18SrRNA by comparative CT method.

The subject of data set [3] is involucrin. As to the kind of experiment: Involucrin protein expression in HaCaT (flow cytometry, microscopy). Type of data set: cell-based, human. Conditions: 10^−8 M, 24 h, flow cytometry. Background: Flow cytometry measures light scatter and fluorescence of single cells or particles in a stream.
The target in the next data set is T3, rat CYP24 (Rattus norvegicus, UniProt Q09128).
T3 sequence (Q09128 36-514): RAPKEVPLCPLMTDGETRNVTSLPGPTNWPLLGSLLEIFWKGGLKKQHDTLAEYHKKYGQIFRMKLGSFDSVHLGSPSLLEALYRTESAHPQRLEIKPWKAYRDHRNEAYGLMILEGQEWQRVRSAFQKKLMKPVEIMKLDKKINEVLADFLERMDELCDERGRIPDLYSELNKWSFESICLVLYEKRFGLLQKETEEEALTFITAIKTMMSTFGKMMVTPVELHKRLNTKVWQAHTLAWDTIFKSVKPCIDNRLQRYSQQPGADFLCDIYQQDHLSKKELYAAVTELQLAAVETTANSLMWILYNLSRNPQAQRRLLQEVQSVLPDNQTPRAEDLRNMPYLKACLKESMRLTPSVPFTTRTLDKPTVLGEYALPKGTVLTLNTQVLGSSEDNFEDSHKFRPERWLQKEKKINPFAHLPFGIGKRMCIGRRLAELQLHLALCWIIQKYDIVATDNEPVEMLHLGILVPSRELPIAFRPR
As to the kind of experiment: Metabolism by rat CYP24 in phospholipid vesicles. The protocol: Samples (typically 0.25-1.0 mL) were incubated at 37° C., with shaking, then reactions terminated by the addition of 2.5 mL ice-cold dichloromethane and vortexing. After phase separation aided by centrifugation, the lower organic phase was retained and the upper aqueous phase was extracted twice more with 2.5 mL aliquots of dichloromethane. The dichloromethane was removed under nitrogen and the residual sample dissolved in solvent for HPLC analysis.
as §1

The test system of data set [4] is HaCaT keratinocytes. As to the kind of experiment: Forward and side scatter (cell size, granularity) of HaCaT keratinocytes. Conditions: HaCaT; 20-hydroxycholecalciferol at 0.1 nM. The class given is cell-based, human. The procedure: The FL-1 signal (collected from 10,000 events in side scatter/forward scatter window after debris exclusion) was recorded. Forward (relative to cell size) and side (relative to cell granularity) scatter histograms were generated and mean signal intensity was recorded. FL-1 signal values are presented as dMFI (difference between mean fluorescence intensity of sample stained with specific and isotype control antibody). Scatter signal values are presented as MSI (mean signal intensity). Signal intensities were analyzed with Cell Quest (BD Biosciences, San Diego, Calif.) and graphical representations of the FL-1 signal were prepared with WinMdi 2.8 (shareware from Joseph Trotter, The Scripps Research Institute, San Diego, Calif.).

Data set [5] concerns involucrin. As to the kind of experiment: Real-time RT PCR involucrin mRNA, normal human epidermal keratinocytes. Type of data set: cell-based. Conditions: 10^−8 M, 6 h. The procedure: as §2
Data set [6] deals with CYP27A1. As to the kind of experiment: Real-time RT PCR CYP27A1 mRNA, normal epidermal keratinocytes. The class given is cell-based, human. Conditions: 10^−8 M, 24 h. The protocol:
as §2

Molecules are shown by their SMILES.

Turning to `C=C1CC[C@H](O)C/C1=C/C=C1\CCC[C@]2(C)[C@@H]([C@H](C)CCCC(C)C)CC[C@@H]12` [cholecalciferol, (5Z,7E)-9,10-secocholesta-5,7,10(19)-triene-3β-ol, reference compound], the figures for the kcat on CYP27A1 [1] and on cytochrome P450scc were 0.0283 ± 0.00233 s⁻¹ and 19.7±0.9 mol/min P450scc, respectively.
As for `C=C1CCC(O)CC1=CC=C1CCCC2(C)C1CCC2(O)C(C)O` [17,20Rdi(OH)pD, (5Z,7E)-(20R)-9,10-secopregna-5,7,10(19)-triene-3β,17α,20-triol], the “TGF-b1 induced Col1A1 mRNA” value in the data set on Col1A1 mRNA is “reduce TGF-β1 induced Col1A1 mRNA”.
For `C=C1CC[C@H](O)C/C1=C/C=C1\CCC[C@]2(C)[C@@H]([C@H](C)CCCC(C)(C)O)CC[C@@H]12` [25-hydroxycholecalciferol, (5Z,7E)-9,10-secocholesta-5,7,10(19)-triene-3β,25-diol, reference compound], in the data set with HaCaT keratinocytes [2], the “inhibition of colony formation” value was “no significant effect”. The “stimulation of transcriptional activity of the CYP24 promoter” value in the data set with CYP24 promoter is given as about 12 fold. Besides, in the data set with CYP27B1, the “increase of CYP27B1 expression” value was about 1.3 fold. Also, the “increase in the expression of involucrin” value in the data set with involucrin [3] is given as “negligible”. Further, the Km on rat CYP24 is 0.0080±0.0016 mol substrate/mol phospholipid. Moreover, on rat CYP24 (phospholipid vesicles), the kcat is 52.6±2.9 mol/min/mol CYP24 and the “kcat higher than that for 1,25(OH)2D3” value is 3.8 fold. Further, in the data set on HaCaT keratinocytes [4], the “forward scatter, mean signal intensity (MSI)” value came out at 254±0.06. In addition, the “stimulation of involucrin mRNA” value with involucrin [5] was about 2.1 fold. Moreover, in the data set on CYP27A1 [6], the “inhibition of CYP27A1 expression” value was about 1.9 fold.
